Source: publication PMC11542593, “Vascular endothelial growth factor receptor 2 as a potential host target for the inhibition of enterovirus replication” (Journal of Virology, 2024)

Key:
EV-A71 [1] = assay: Cytopathic effect (CPE) inhibition assay in RD cells; format: cell-based, Human enterovirus A71; details: Enterovirus A, EVA71, RD, read-out: EC50, compound concentration required to achieve 50% protection from virus-induced cytopathogenicity
EV-A71 [2] = assay: EV-A71 inactivation (virucidal) assay; parameters: species or system Human enterovirus A71; details: 10 µM, 2 h at 25°C, TCID50
Protocol: (§1) Fig. S5. […] (A) EV-A71 inactivation assay. […] (B) EV-A71 attachment assay. […] After 2 hpi, the infectious inoculum was removed and cells were washed again. The intracellular viral RNA load was then determined using RT-qPCR analysis. (C) EV-A71 entry assay.

EV-A71 [3] = assay: Time-of-drug addition assay in RD cells; format: cell-based, Human enterovirus A71; details: MOI 1, read at 12 hpi
Protocol: RD cells were seeded into 24-well plates or eight-well chamber slides (Millicell) 1 day before infection with EV-A71 at an MOI of 1. After adsorption for 2 h, the cells were washed with PBS once to remove the unbound virus and maintained in DMEM supplemented with 2% FBS. […] At 12 hpi, the virus from the culture supernatant were collected, and the relative viral gene copy was detected by RT-qPCR. Meanwhile, the virus titer was assessed using TCID50 assay as described before. To analyze VP1 expression, the cells in the eight-well chamber slides were fixed and then monitored using immunofluorescence staining.
(A) Graphical scheme illustrating the experimental design. (B) RT-qPCR measured the amount of viral RNA released into culture supernatant. (C) Viral titer was determined in TCID50 assays. […] Nuclei are counterstained with DAPI (blue). Scale bar, 50 µm.

EV-A71 [4] = assay: Flow cytometry of VP1-positive EV-A71-infected RD cells; format: cell-based, Human enterovirus A71; details: 10 μM, MOI 2, 6 and 9 hpi
Protocol: Flow cytometry analysis was performed according to the standard protocol as described previously ([28]). In brief, the infected or mock-infected RD cells were dissociated with 10 mM EDTA and then fixed with 4% paraformaldehyde for 30 min. After permeabilization, the cells were incubated with rabbit anti‐VP1 antibody (GeneTex, GTX132339), followed by labeling with FITC-conjugated goat anti-rabbit IgG (Beyotime, P0176). Flow cytometry analysis was performed using a BD Fortessa flow cytometer (BD Biosciences), and the data were analyzed using FlowJo v.10 (Tree Star, USA).
Fig. S4. […] Then the infected- and mock-infected RD cells were fixed, labeled, and applied to flow cytometry to evaluate the percentage of VP1-positive cells at 0, 3, 6 and 9 hpi. […] Mean and SD of three independent experiments are presented (B and C). *p < 0.05; **p < 0.01.

EV-A71 [5] = assay: Viral load reduction assay in RD cells (RT-qPCR, TCID50, VP1 Western blot); format: cell-based, Human enterovirus A71; details: MOI 0.1, 24 h
Protocol: Detection of cellular mRNA expression and viral load was performed as described previously ([24]). In brief, the infected or mock-infected cells were lysed and applied to total RNA extraction by using the MiniBEST Universal RNA Extraction Kit (TaKaRa, Code No.9767). Viral RNA in the supernatant was extracted with the MiniBEST Viral RNA Extraction Kit (TaKaRa, Code No.9766). Reverse transcription was performed using the PrimeScript RT reagent Kit (TaKaRa, Code No.PR037A) with an oligo (dT) primer. The resultant cDNAs were used for qPCR assay with the Light Cycler 480 SYBR Green I Master Mix (Roche) to measure the mRNA expression level of cellular genes or viral load in supernatants. The relative viral gene copy was determined by RT-qPCR, using GAPDH as an internal reference.
The viral titer in the indicated samples was determined by TCID50 assay as described previously ([25]). Briefly, serially diluted samples from 10^−1 to 10^−8 in DMEM were inoculated to RD cells, BGMK cells, or MRC-5 in 96‐well plates. The cells were then incubated for 2 to 3 days at 37°C. TCID50 was calculated by counting the wells with cytopathic effect in infected cells using the Reed–Muench method.
Western blot analysis was performed as described previously ([26]). In brief, the indicated cell samples were lysed in RIPA buffer supplemented with protease inhibitors (Thermo Fisher Scientific, 78430). The cell lysates were then separated in 10% SDS-PAGE and transferred to a 0.45-µm nitrocellulose membrane. After blocking, the membrane was incubated with an against VP1 antibody (GeneTex, GTX132339), VEGFR1 antibody (Abcam, ab32152), VEGFR2 antibody (Abcam, ab134191), phosphorylated VEGFR2 antibody (Tyr951) (CST 4991), VEGFR3 antibody (Beyotime, AF6918), Akt antibody (CST 4685), phosphorylated Akt antibody (CST 4060), or GAPDH antibody (GeneTex, GTX627408) diluted 1:5,000 in primary antibody dilution buffer overnight at 4°C, followed by corresponding secondary staining. The blots were visualized by western horseradish peroxidase substrate and imaged with Gel Doc XR+.
The results represent cell viability in the EV-A71-infected RD cells or 2D human intestinal organoids treated with DMSO (Negative control), Pirodavir (Positive control), or indicated VEGFR inhibitor (10 µM) relative to those in mock-infected RD cells or 2D human intestinal organoids. […] Significant inhibition of EV-A71 infection was found for both cell lysate (left) and supernatant (right) using RT-qPCR analysis. The results represent the viral load in the cells treated with indicated inhibitors relative to that in DMSO-treated cells. (C) Viral titer was also determined for inhibitor-treated samples in TCID50 assays. […] (D) Representative images of immunofluorescence assay for selected inhibitors using Rabbit anti‐VP1 antibody (green). Nuclei are counterstained with DAPI (blue). Scale bar, 50 µm.
Nuclei are counterstained with DAPI (blue). Scale bar, 50 µm.
Fig. S2. […] The results represent the viral load in the cells treated with indicated concentration of VEGFR inhibitors relative to that in DMSO-treated cells. Viral titer was also determined for samples treated with indicated concentrations of VEGFR inhibitors in TCID50 assays.
Fig. S7. Viral reduction in RD cells with Src inhibitor treatment. […] Significant inhibition of EV-A71 infection was found for both cell lysate (left) and supernatant (middle) using RT-qPCR analysis. The results represent the viral load in the cells treated with Dasatinib relative to that in DMSO-treated cells. Viral titer was also determined for inhibitor-treated samples in TCID50 assays (right). […] (C) VP1 protein levels were measured for samples treated with DMSO or Dasatinib using western blotting.
Fig. S8. Viral reduction in RD cells with Akt inhibitor treatment. […] Significant inhibition of EV-A71 infection was found for both cell lysate (left) and supernatant (middle) using RT-qPCR analysis. […]

EV-A71 [6] = assay: Virus attachment/entry assay in RD cells; format: cell-based, Human enterovirus A71; details: 10 µM, MOI 5
Protocol: After 2 hpi, the infectious inoculum was removed, and cell lysates were collected. The intracellular viral RNA load was then determined using RT-qPCR analysis. […] The cell lysates were then collected to detect the intracellular viral gene copy by RT-qPCR analysis.
as §1

Cc1ccc(Nc2nccc(N(C)c3ccc4c(C)n(C)nc4c3)n2)cc1S(N)(=O)=O [Pazopanib]
EC50 (EV-A71 [1]): 890 ± 20 nM | virucidal effect (EV-A71 virus titers vs DMSO) (EV-A71 [2]): no virucidal effect | inhibitory effect, late treatment (EV-A71 [3]; 10 µM added at 6 to 10 hpi): no significant inhibitory effect | viral load and viral titer of progeny virions in culture medium, early treatment (EV-A71 [3]; 10 µM added at −2 h, 0 h, 2 h, 4 h): significantly reduced | percentage of EV-A71-infected RD cells (EV-A71 [4]): markedly decreased | EV-A71 structural protein VP1 expression, dose dependence (Western blot) (EV-A71 [5]; indicated concentrations): dose-dependent inhibition | EV-A71 viral load and viral titer, dose dependence (EV-A71 [5]; indicated noncytotoxic concentrations): markedly reduced | effect on viral attachment/entry (EV-A71 mRNA levels in cell lysates) (EV-A71 [6]): did not affect the viral attachment/entry stage
